# Data as given in patent US7968556B2, “Heteroaryl compounds, compositions thereof, and methods of treatment therewith” (Signal Pharmaceuticals, LLC, priority 2006, dated 2011).
# Biological target: T1, Tyk2 (Homo sapiens, UniProt P29597)
# T1 construct: 450 ng/ml TYK2 KD (Cama Biosciences 08-147 Lot 06CBS-3022D); purchased Cama Biosciences (so in the source)
# T1 sequence (P29597 897-1176 limits assumed): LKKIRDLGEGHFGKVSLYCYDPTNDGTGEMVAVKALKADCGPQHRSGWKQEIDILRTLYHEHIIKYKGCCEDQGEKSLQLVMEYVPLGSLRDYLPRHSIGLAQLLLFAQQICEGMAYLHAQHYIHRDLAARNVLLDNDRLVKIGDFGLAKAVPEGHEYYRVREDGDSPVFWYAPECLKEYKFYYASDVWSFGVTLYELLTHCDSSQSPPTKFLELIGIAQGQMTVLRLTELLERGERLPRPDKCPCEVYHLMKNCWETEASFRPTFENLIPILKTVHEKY
# Test: Tyk2 HTRF Assay
# Type: biochemical
# Procedure: The following is an example of an assay that can be used to determine the Tyk2 inhibitory activity of a test compound.
# 25 μl/well DMSO is added to Columns 2 and 14 (except 28.5 μl is added to well P14 of Greiner 384-well polypropylene plate). 20 μl/well DMSO is added to all remaining wells.
# 5 mM compound solutions are added by addition of 5 μl of 30 mM compound to 25 μl DMSO in Columns 2 and 14 of plate. 1.5 mM reference control is prepared by addition of 1.5 μl of 30 mM JAK3 Inhibitor VI to 28.5 μl DMSO in Well P14.
# Serial dilution is then performed by the following steps: (i) Compounds in Column 2 are mixed by pipetting 20 μl up and down 6X; (ii) 10 μl/well compounds in DMSO are transferred from one column to the next column for Columns 2-11; (iii) wells are mixed by pipetting 20 μl up and down 6×; (iv) tips are washed 3×25 μl DMSO, 2×25 μl next DMSO; (v) steps i-iv repeated for Columns 14-23.
# The following buffers are prepared:
# Assay Buffer: 50 mM HEPES pH 7.6; 1 mM DTT; 10 mM MgCl2; 0.01% Triton X100; 0.01% BSA; and 0.1 mM EDTA.
# Kinase in Assay Buffer: 450 ng/ml TYK2 KD (Cama Biosciences 08-147 Lot 06CBS-3022D).
# Substrate/Detection Mixture (1×ATP) in Assay Buffer: 188 nM DyLight 647-Streptavidin (Pierce 21824); 5 μM Biotin-EQEDEPEGDYFEWLE (Lyn Substrate Peptide); 750 ng/ml Eu-anti-phospho-Tyrosine (PerkinElmer AD0069); 62.5 μM ATP; 80 nM Substrate Peptide (American Peptide Company 332722).
# Substrate/Detection Mixture (20×ATP) in Assay Buffer: 188 nM DyLight 647-Streptavidin; 5 μM Biotin-EQEDEPEGDYFEWLE; 750 ng/ml Eu-anti-phospho-Tyrosine; 1250 μM ATP; 80 nM Substrate Peptide.
# 14.5 μl/well Enzyme Mix or Dilution Buffer (Background Controls) is added to Costar 384 well black plates.
# Compound addition and mixture is performed by the following steps: (i) 0.5 μl/well DMSO/compounds in DMSO is transferred from Greiner 384-well polypropylene plate to a plate containing 14.5 μl/well Enzyme Mix and Dilution Buffer; (ii) mixed by pipetting 10 μl up and down 4×; (iii) tips are washed 4×10 μl in DMSO, 2×20 μl in other DMSO; (iv) steps i-iii are repeated until all plates are completed.
# 10 μl/well Substrate/Detection Mixtures is added and incubated at room temperature 2 hours (on shaker for first 2+ minutes).
# 10 μl/well 50 mM EDTA/0.01% Triton X100 is added and incubated >15 minutes at room temperature (on shaker for first 2+ minutes).
# Plates are read at 665 nm and 620 nm emission on Analyst GT protocol HTRF_SP_A (Counts= 665/620×10000).
structure (smiles),measurement,value
"NC(=O)c1nc(-c2cccnc2)nc2c1[nH]c(=O)n2[C@H]1CC[C@H](O)CC1 [Compound 50, 9-(trans-4-Hydroxycyclohexyl)-8-oxo-2-(pyridin-3-yl)-8,9-dihydro-7H-purine-6-carboxamide]",IC50,20.1 to 30 µM
